Assay results reported in US11944626B2, “Small molecule inhibitors of ALDH and uses thereof” (The Regents of the University of Michigan, priority 2016, dated 2024).

What was measured:
ALDH2 = biological target: T1, ALDH2 (Homo sapiens, UniProt P05091); test: Inhibition of ALDH isoenzymes (NAD(P)H formation at 340 nm, purified recombinant enzyme); format: biochemical; design: key to ALDH2 inhibition at 20 μM (N.I.): N.I.: No inhibition at 20 μM; details: compound at 20 μM; for remaining activity at 20 µM: read-out: ALDH2 % Control at 20 μM;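 on all read-outs here: run at 25 °C, started by adding substrate after 2 min preincubation, with 100-200 nM ALDH2, 200 µM NAD+, 100 µM propionaldehyde, 1% DMSO in BES buffer pH 7.5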
T1 sequence (P05091 18-517): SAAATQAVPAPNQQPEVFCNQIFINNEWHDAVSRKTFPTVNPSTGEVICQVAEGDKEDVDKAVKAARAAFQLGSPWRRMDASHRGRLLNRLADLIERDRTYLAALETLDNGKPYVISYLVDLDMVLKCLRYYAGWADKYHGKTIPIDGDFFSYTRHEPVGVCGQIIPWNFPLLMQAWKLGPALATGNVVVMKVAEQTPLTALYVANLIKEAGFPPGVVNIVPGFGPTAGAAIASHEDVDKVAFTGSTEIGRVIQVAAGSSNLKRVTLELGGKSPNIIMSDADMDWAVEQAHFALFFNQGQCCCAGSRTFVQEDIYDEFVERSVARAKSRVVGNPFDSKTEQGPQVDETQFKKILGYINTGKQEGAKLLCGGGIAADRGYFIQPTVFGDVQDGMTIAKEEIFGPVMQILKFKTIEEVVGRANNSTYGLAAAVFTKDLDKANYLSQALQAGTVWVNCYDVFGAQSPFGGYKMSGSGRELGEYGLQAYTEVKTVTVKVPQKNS

OVSAHO = OVSAHO Cell Viability; format: cell-based; details: for OVSAHO Cell Viability (30 μM) % CD133 + % ctrl / OVSAHO Cell Viability (50 μM) % CD133 + % ctrl: CD133+ cells; for OVSAHO Cell Viability (30 μM) Total Cell % ctrl / OVSAHO Cell Viability (50 μM) Total Cell % ctrl: total cells
ALDH1A2 = biological target: T2, ALDH1A2 (Homo sapiens, UniProt O94788); test: Inhibition of ALDH isoenzymes (NAD(P)H formation at 340 nm, purified recombinant enzyme); format: biochemical; details: for remaining activity at 20 µM: compound at 20 μM, read-out: ALDH1A2 % Control at 20 μM
T2 sequence (O94788 1-518): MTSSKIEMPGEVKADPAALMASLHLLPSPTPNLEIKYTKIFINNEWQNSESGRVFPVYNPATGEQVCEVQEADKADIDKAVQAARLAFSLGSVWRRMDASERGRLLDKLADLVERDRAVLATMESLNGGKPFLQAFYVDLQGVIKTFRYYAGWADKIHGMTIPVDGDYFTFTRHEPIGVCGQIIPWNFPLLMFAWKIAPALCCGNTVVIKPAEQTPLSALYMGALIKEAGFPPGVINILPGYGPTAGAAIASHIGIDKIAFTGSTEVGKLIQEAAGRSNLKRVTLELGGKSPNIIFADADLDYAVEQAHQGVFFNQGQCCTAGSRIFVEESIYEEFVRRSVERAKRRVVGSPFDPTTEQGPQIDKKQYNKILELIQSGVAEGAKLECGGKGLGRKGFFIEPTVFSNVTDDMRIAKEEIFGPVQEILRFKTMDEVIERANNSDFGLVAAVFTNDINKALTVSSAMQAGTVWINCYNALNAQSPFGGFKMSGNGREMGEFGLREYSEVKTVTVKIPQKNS

ALDH1A1 = biological target: T3, ALDH1A1 (Homo sapiens, UniProt P00352); test: as above; format: biochemical; details: for remaining activity at 20 µM: compound at 20 μM, read-out: ALDH1A1 % Control at 20 μM
T3 sequence (P00352 1-501): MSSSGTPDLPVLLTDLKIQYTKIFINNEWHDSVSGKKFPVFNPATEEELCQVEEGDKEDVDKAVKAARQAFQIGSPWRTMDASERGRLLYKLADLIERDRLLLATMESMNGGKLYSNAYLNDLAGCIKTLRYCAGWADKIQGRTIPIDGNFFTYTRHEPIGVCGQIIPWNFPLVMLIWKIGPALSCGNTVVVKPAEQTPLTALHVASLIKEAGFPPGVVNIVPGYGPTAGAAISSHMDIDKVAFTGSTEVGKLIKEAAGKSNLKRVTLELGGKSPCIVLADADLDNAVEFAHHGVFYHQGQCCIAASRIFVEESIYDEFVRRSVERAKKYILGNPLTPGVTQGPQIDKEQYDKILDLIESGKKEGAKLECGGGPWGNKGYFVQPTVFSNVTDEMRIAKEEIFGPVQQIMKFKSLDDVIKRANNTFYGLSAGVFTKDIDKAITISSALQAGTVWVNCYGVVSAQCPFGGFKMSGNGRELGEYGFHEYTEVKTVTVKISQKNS

[1] = 100-200 nM enzyme, 200 μM NAD+, 100 μM propionaldehyde, pH 7.5, 25° C.

CN(Cc1nc2c(cnn2C)c(=O)n1-c1ccccc1)c1cccc(F)c1 [Example 62, 6-(((3-fluorophenyl)(methyl)amino)methyl)-1-methyl-5-phenyl-1H-pyrazolo[3,4-d]pyrimidin-4(5H)-one]
remaining activity at 20 µM (ALDH2): 103% | OVSAHO Cell Viability (30 μM) % CD133 + % ctrl (OVSAHO): 96% ctrl | OVSAHO Cell Viability (30 μM) Total Cell % ctrl (OVSAHO): 65% ctrl

Cc1ccccc1-n1c(SCc2cccc(F)c2)nc2c(cnn2C2COC2)c1=O [Example 9, 6-((3-fluorobenzyl)thio)-1-(oxetan-3-yl)-5-(o-tolyl)-1H-pyrazolo[3,4-d]pyrimidin-4(5H)-one]
remaining activity at 20 µM (ALDH1A2): 31% | OVSAHO Cell Viability (50 μM) % CD133 + % ctrl (OVSAHO): 50 % ctrl | OVSAHO Cell Viability (50 μM) Total Cell % ctrl (OVSAHO): 22 % ctrl

Cn1ncc2c(=O)n(-c3ccccc3)c(SCc3cccc(F)c3)nc21 [Example 27, 6-((3-fluorobenzyl)thio)-1-methyl-5-phenyl-1H-pyrazolo[3,4-d]pyrimidin-4(5H)-one]
ALDH2 inhibition at 20 μM (N.I.) (ALDH2): N.I.

Cn1ncc2c(=O)n(Cc3ccccc3)c(SCc3cccc(F)c3)nc21 [Example 36, 5-benzyl-6-((3-fluorobenzyl)thio)-1-methyl-1H-pyrazolo[3,4-d]pyrimidin-4(5H)-one]
ALDH2 inhibition at 20 μM (N.I.) (ALDH2): N.I. | OVSAHO Cell Viability (50 μM) % CD133 + % ctrl (OVSAHO): 5 % ctrl | OVSAHO Cell Viability (50 μM) Total Cell % ctrl (OVSAHO): 12 % ctrl

CC(Sc1nc2c(cnn2C)c(=O)n1-c1ccccc1)c1ccccc1 (racemic) [Example 61, 1-methyl-5-phenyl-6-((1-phenylethyl)thio)-1H-pyrazolo[3,4-d]pyrimidin-4(5H)-one]
remaining activity at 20 µM (ALDH2): 107% | OVSAHO Cell Viability (30 μM) % CD133 + % ctrl (OVSAHO): 88% ctrl | OVSAHO Cell Viability (30 μM) Total Cell % ctrl (OVSAHO): 7% ctrl

Cn1ncc2c(=O)n(-c3ccccc3)c(CSc3cccc(F)c3)nc21 [Example 51, 6-(((3-fluorophenyl)thio)methyl)-1-methyl-5-phenyl-1H-pyrazolo[3,4-d]pyrimidin-4(5H)-one]
remaining activity at 20 µM (ALDH1A1): 25% | remaining activity at 20 µM (ALDH2): 92%

Cn1ncc2c(=O)n(-c3ccncc3)c(SCc3cccc(F)c3)nc21 [Example 32, 6-((3-fluorobenzyl)thio)-1-methyl-5-(pyridin-4-yl)-1H-pyrazolo[3,4-d]pyrimidin-4(5H)-one]
IC50 (ALDH1A1; [1]): 5.2 µM | OVSAHO Cell Viability (50 μM) % CD133 + % ctrl (OVSAHO): 75 % ctrl | OVSAHO Cell Viability (50 μM) Total Cell % ctrl (OVSAHO): 66 % ctrl

Cn1c(SCc2cccc(F)c2)nc2c(cnn2C)c1=O [Example 37, 6-((3-fluorobenzyl)thio)-1,5-dimethyl-1H-pyrazolo[3,4-d]pyrimidin-4(5H)-one]
OVSAHO Cell Viability (50 μM) % CD133 + % ctrl (OVSAHO): 88 % ctrl | OVSAHO Cell Viability (50 μM) Total Cell % ctrl (OVSAHO): 7 % ctrl

Cn1ncc2c(=O)n(-c3cccnc3)c(SCc3cccc(F)c3)nc21 [Example 31, 6-((3-fluorobenzyl)thio)-1-methyl-5-(pyridin-3-yl)-1H-pyrazolo[3,4-d]pyrimidin-4(5H)-one]
OVSAHO Cell Viability (50 μM) % CD133 + % ctrl (OVSAHO): 81 % ctrl | OVSAHO Cell Viability (50 μM) Total Cell % ctrl (OVSAHO): 79 % ctrl

CC(Sc1nc2c(cnn2C)c(=O)n1-c1ccccc1)c1cccnc1 (stereo not shown) [Example 80, 1-methyl-5-phenyl-6-((1-(pyridin-3-yl)ethyl)thio)-1H-pyrazolo[3,4-d]pyrimidin-4(5H)-one]
remaining activity at 20 µM (ALDH1A1): 6% | remaining activity at 20 µM (ALDH1A2): 7% | remaining activity at 20 µM (ALDH2): 96%

Cn1ncc2c(=O)n(-c3ccc(Cl)cc3)c(SCc3cccc(F)c3)nc21 [Example 43, 5-(4-chlorophenyl)-6-((3-fluorobenzyl)thio)-1-methyl-1H-pyrazolo[3,4-d]pyrimidin-4(5H)-one]
remaining activity at 20 µM (ALDH2): 153%

CC(Oc1nc2c(cnn2C)c(=O)n1-c1ccccc1)c1ccccc1 (stereo not shown) [Example 66, 1-methyl-5-phenyl-6-(1-phenylethoxy)-1H-pyrazolo[3,4-d]pyrimidin-4(5H)-one]
remaining activity at 20 µM (ALDH2): 92% | OVSAHO Cell Viability (30 μM) Total Cell % ctrl (OVSAHO): 76% ctrl

Cn1ncc2c(=O)n(-c3ccccc3)c(OCc3cccc(F)c3)nc21 [Example 60, 6-((3-fluorobenzyl)oxy)-1-methyl-5-phenyl-1H-pyrazolo[3,4-d]pyrimidin-4(5H)-one]
remaining activity at 20 µM (ALDH2): 91% | OVSAHO Cell Viability (30 μM) % CD133 + % ctrl (OVSAHO): 76% ctrl | OVSAHO Cell Viability (30 μM) Total Cell % ctrl (OVSAHO): 35% ctrl

CC(Sc1nc2c(cnn2C)c(=O)n1-c1ccccc1)c1cccc(O)c1 (stereo not shown) [Example 78, 6-((1-(3-hydroxyphenyl)ethyl)thio)-1-methyl-5-phenyl-1H-pyrazolo[3,4-d]pyrimidin-4(5H)-one]
remaining activity at 20 µM (ALDH1A1): 4% | remaining activity at 20 µM (ALDH1A2): 0% | remaining activity at 20 µM (ALDH2): 91%

Cn1cc2c(=O)n(-c3ccccc3)c(SCc3cccc(F)c3)nc2n1 [Example 13, 6-((3-fluorobenzyl)thio)-2-methyl-5-phenyl-2H-pyrazolo[3,4-d]pyrimidin-4(5H)-one]
OVSAHO Cell Viability (50 μM) % CD133 + % ctrl (OVSAHO): 83 % ctrl | OVSAHO Cell Viability (50 μM) Total Cell % ctrl (OVSAHO): 69 % ctrl

Cn1ncc2c(=O)n(-c3cccc(Cl)c3)c(SCc3cccc(F)c3)nc21 [Example 42, 5-(3-chlorophenyl)-6-((3-fluorobenzyl)thio)-1-methyl-1H-pyrazolo[3,4-d]pyrimidin-4(5H)-one]
remaining activity at 20 µM (ALDH2): 137%

Cc1ccccc1-n1c(SCc2cccc(F)c2)nc2c(cnn2C)c1=O [Example 3, 6-((3-fluorobenzyl)thio)-1-methyl-5-(o-tolyl)-1H-pyrazolo[3,4-d]pyrimidin-4(5H)-one]
IC50 (ALDH1A2; [1]): > 20 µM

Cn1ncc2c(=O)n(-c3ccccn3)c(SCc3cccc(F)c3)nc21 [Example 34, 6-((3-fluorobenzyl)thio)-1-methyl-5-(pyridin-2-yl)-1H-pyrazolo[3,4-d]pyrimidin-4(5H)-one]
OVSAHO Cell Viability (50 μM) % CD133 + % ctrl (OVSAHO): 81 % ctrl | OVSAHO Cell Viability (50 μM) Total Cell % ctrl (OVSAHO): 77 % ctrl

O=c1c2cn[nH]c2nc(SCc2cccc(F)c2)n1-c1ccccc1 [Example 2, 6-((3-fluorobenzyl)thio)-5-phenyl-1H-pyrazolo[3,4-d]pyrimidin-4(5H)-one]
OVSAHO Cell Viability (50 μM) % CD133 + % ctrl (OVSAHO): 58 % ctrl | OVSAHO Cell Viability (50 μM) Total Cell % ctrl (OVSAHO): 39 % ctrl

Cc1ccccc1-n1c(SCc2cccc(F)c2)nc2c(cnn2CC2COC2)c1=O [Example 11, 6-((3-fluorobenzyl)thio)-1-(oxetan-3-ylmethyl)-5-(o-tolyl)-1H-pyrazolo[3,4-d]pyrimidin-4(5H)-one]
OVSAHO Cell Viability (50 μM) % CD133 + % ctrl (OVSAHO): 69 % ctrl | OVSAHO Cell Viability (50 μM) Total Cell % ctrl (OVSAHO): 30 % ctrl

Cn1ncc2c(=O)n(-c3ccccc3)c(CNc3cccc(F)c3)nc21 [Example 49, 6-(((3-fluorophenyl)amino)methyl)-1-methyl-5-phenyl-1H-pyrazolo[3,4-d]pyrimidin-4(5H)-one]
remaining activity at 20 µM (ALDH2): 89%

CC(Sc1nc2nn(CC3COC3)cc2c(=O)n1-c1ccccc1)c1ccccc1 (stereo not shown) [Example 64, 2-(oxetan-3-ylmethyl)-5-phenyl-6-((1-phenylethyl)thio)-2H-pyrazolo[3,4-d]pyrimidin-4(5H)-one]
remaining activity at 20 µM (ALDH2): 100%

C[C@@H](Sc1nc2c(cnn2C)c(=O)n1-c1ccccc1)c1ccccc1 [Example 65, (R)-1-methyl-5-phenyl-6-((1-phenylethyl)thio)-1H-pyrazolo[3,4-d]pyrimidin-4(5H)-one]
remaining activity at 20 µM (ALDH2): 100% | OVSAHO Cell Viability (30 μM) % CD133 + % ctrl (OVSAHO): 117% ctrl | OVSAHO Cell Viability (30 μM) Total Cell % ctrl (OVSAHO): 75% ctrl
